{"source": "the OligoGym collection", "note": "Bases are written 5' to 3'; sugars and linkages follow in the same order, as letters with counts (s phosphorothioate, o phosphodiester; PS: all linkages phosphorothioate). The collection does not say whether C is 5-methylated. l = locked nucleic acid (LNA); d = 2'-deoxy (DNA)"}
{"molecular_target": "Tau", "test": "rat primary cortical neurons, FLIPR, 25 uM ASO"}
{"sequence": "CGTCCCAGCGTGATCTTCCA (sugars lldllddddddddddlldll, PS)", "calcium oscillation score": "59.6 % of control"}
{"sequence": "CGTCTTTGCTTTTACTGACC (sugars l3 d14 l3, PS)", "calcium oscillation score": "29.6 % of control"}
{"sequence": "CGTGATCTTCCATC (sugars l3 d8 l3, PS)", "calcium oscillation score": "85.1 % of control"}
{"sequence": "CGTGATCTTCCATCAC (sugars l3 d10 l3, PS)", "calcium oscillation score": "127 % of control"}
{"sequence": "CGTGGGTGATATTGTC (sugars l3 d10 l3, PS)", "calcium oscillation score": "0 % of control"}
{"sequence": "CGTGGGTGATATTGTCCAGG (sugars l3 d14 l3, PS)", "calcium oscillation score": "0 % of control"}
{"sequence": "CGTGGTCTGTCTTG (sugars l3 d8 l3, PS)", "calcium oscillation score": "0 % of control"}
{"sequence": "CGTGGTCTGTCTTGGC (sugars l3 d10 l3, PS)", "calcium oscillation score": "19 % of control"}
{"sequence": "CGTTCTCGCGGAAGGT (sugars l3 d10 l3, PS)", "calcium oscillation score": "13 % of control"}
{"sequence": "CGTTGCTAAGATCCAG (sugars l3 d10 l3, PS)", "calcium oscillation score": "9.04 % of control"}
{"sequence": "CGTTTTCTTACCACCC (sugars l2 d12 l2, PS)", "calcium oscillation score": "46.2 % of control"}
{"sequence": "CTAAACCATGATCTTA (sugars l3 d10 l3, PS)", "calcium oscillation score": "21.1 % of control"}
{"sequence": "CTAAAGTCCCAGGTC (sugars l3 d9 l3, PS)", "calcium oscillation score": "40.5 % of control"}
{"sequence": "CTAAAGTCCCAGGTCT (sugars l3 d10 l3, PS)", "calcium oscillation score": "59.2 % of control"}
{"sequence": "CTAAGCACTTTACCCATC (sugars l3 d13 l2, PS)", "calcium oscillation score": "97.6 % of control"}
{"sequence": "CTAAGGCAAGGCCTAT (sugars l3 d10 l3, PS)", "calcium oscillation score": "83 % of control"}
{"sequence": "CTAATATCCTTGCTATC (sugars l3 d10 l4, PS)", "calcium oscillation score": "55.7 % of control"}
{"sequence": "CTAATCCTGTGCTT (sugars l3 d8 l3, PS)", "calcium oscillation score": "26.1 % of control"}
{"sequence": "CTAATCCTGTGCTTC (sugars l3 d9 l3, PS)", "calcium oscillation score": "73.1 % of control"}
{"sequence": "CTAATCCTGTGCTTCA (sugars l3 d10 l3, PS)", "calcium oscillation score": "100 % of control"}
{"sequence": "CTAATGAGCCACACTTGGAG (sugars l3 d14 l3, PS)", "calcium oscillation score": "46.5 % of control"}
{"sequence": "CTAATTACATTTTTTCTT (sugars l4 d10 l4, PS)", "calcium oscillation score": "63.9 % of control"}
{"sequence": "CTAATTACATTTTTTCTTT (sugars l4 d11 l4, PS)", "calcium oscillation score": "62.6 % of control"}
{"sequence": "CTAATTACATTTTTTCTTTT (sugars l4 d12 l4, PS)", "calcium oscillation score": "60.1 % of control"}
{"sequence": "CTAATTCCCAAATTCCTCA (sugars l2 d14 l3, PS)", "calcium oscillation score": "62.1 % of control"}
{"sequence": "CTAATTCCCAAATTCCTCAT (sugars l3 d14 l3, PS)", "calcium oscillation score": "60.9 % of control"}
{"sequence": "CTAATTTAGTCACCATC (sugars l3 d10 l4, PS)", "calcium oscillation score": "83.3 % of control"}
{"sequence": "CTACAAACCAGTTACC (sugars l3 d9 l4, PS)", "calcium oscillation score": "107 % of control"}
{"sequence": "CTACAAACCAGTTACCA (sugars l3 d11 l3, PS)", "calcium oscillation score": "69.9 % of control"}
{"sequence": "CTACACCACTGTTCCATA (sugars l1 d15 l2, PS)", "calcium oscillation score": "62 % of control"}
{"sequence": "CTACATTTTTGTCTCAT (sugars l4 d10 l3, PS)", "calcium oscillation score": "65.4 % of control"}
{"sequence": "CTACCATGTCGATG (sugars l3 d8 l3, PS)", "calcium oscillation score": "6.9 % of control"}
{"sequence": "CTACCATGTCGATGCT (sugars l3 d10 l3, PS)", "calcium oscillation score": "99.7 % of control"}
{"sequence": "CTACCCCATTTTTGACAT (sugars l3 d13 l2, PS)", "calcium oscillation score": "48.7 % of control"}
{"sequence": "CTACTATTTACTATGC (sugars l3 d9 l4, PS)", "calcium oscillation score": "66.8 % of control"}
{"sequence": "CTACTATTTACTATGCA (sugars l4 d10 l3, PS)", "calcium oscillation score": "78.4 % of control"}
{"sequence": "CTACTTTATTCCCTTAAC (sugars l4 d11 l3, PS)", "calcium oscillation score": "91.3 % of control"}
{"sequence": "CTACTTTATTCCCTTAACAA (sugars l2 d15 l3, PS)", "calcium oscillation score": "86.8 % of control"}
{"sequence": "CTAGCCCACCCATCAATTTG (sugars l3 d14 l3, PS)", "calcium oscillation score": "0 % of control"}
{"sequence": "CTAGTTATACAGTTGGCCCT (sugars l3 d14 l3, PS)", "calcium oscillation score": "33.3 % of control"}
{"sequence": "CTATTCCTGAATTTTTC (sugars l4 d10 l3, PS)", "calcium oscillation score": "69 % of control"}
{"sequence": "CTCAAAAATCAACGCCT (sugars l3 d10 l4, PS)", "calcium oscillation score": "57 % of control"}
{"sequence": "CTCAAAATCCTTAATTTAAC (sugars l4 d12 l4, PS)", "calcium oscillation score": "64.4 % of control"}
{"sequence": "CTCAAACTTAAATTTATT (sugars l4 d10 l4, PS)", "calcium oscillation score": "82.4 % of control"}
{"sequence": "CTCAAACTTAAATTTATTTT (sugars l4 d12 l4, PS)", "calcium oscillation score": "90.7 % of control"}
{"sequence": "CTCAAATCAAACTAATATT (sugars l4 d11 l4, PS)", "calcium oscillation score": "98.6 % of control"}
{"sequence": "CTCAAATCAATTCTCATTTC (sugars l4 d13 l3, PS)", "calcium oscillation score": "62 % of control"}
{"sequence": "CTCAACATTACCCTTAAATA (sugars l4 d14 l2, PS)", "calcium oscillation score": "57.6 % of control"}
{"sequence": "CTCAAGAAATGGTTTGCTAC (sugars l3 d14 l3, PS)", "calcium oscillation score": "23.8 % of control"}
{"sequence": "CTCACCCCAAACAAGA (sugars l3 d10 l3, PS)", "calcium oscillation score": "65.6 % of control"}
{"sequence": "CTCACCCCAAACAAGAA (sugars l2 d11 l4, PS)", "calcium oscillation score": "45.1 % of control"}
{"sequence": "CTCACTTTACACATTAAATT (sugars l4 d12 l4, PS)", "calcium oscillation score": "59.8 % of control"}
{"sequence": "CTCAGATTTTACTTCCA (sugars l4 d11 l2, PS)", "calcium oscillation score": "45.2 % of control"}
{"sequence": "CTCAGATTTTACTTCCAC (sugars l4 d12 l2, PS)", "calcium oscillation score": "43.1 % of control"}
